In BigSolDB 2.1:

Structure (SMILES): COc1cccc(C=O)c1O
- solubility (mole fraction) (in ethanol, 273.15 K): 0.0401
- solubility (mole fraction) (in ethanol, 278.15 K): 0.0526
- solubility (mole fraction) (in ethanol, 283.15 K): 0.0774
- solubility (mole fraction) (in ethanol, 288.15 K): 0.138
- solubility (mole fraction) (in ethanol, 293.15 K): 0.226
- solubility (mole fraction) (in ethanol, 298.15 K): 0.38
- solubility (mole fraction) (in ethanol, 303.15 K): 0.615
- solubility (mole fraction) (in n-propanol, 273.15 K): 0.0312
- solubility (mole fraction) (in n-propanol, 278.15 K): 0.0388
- solubility (mole fraction) (in n-propanol, 283.15 K): 0.0552
- solubility (mole fraction) (in n-propanol, 288.15 K): 0.0807
- solubility (mole fraction) (in n-propanol, 293.15 K): 0.134
- solubility (mole fraction) (in n-propanol, 298.15 K): 0.299
- solubility (mole fraction) (in n-propanol, 303.15 K): 0.554
- solubility (mole fraction) (in water, 278.15 K): 0.000268
- solubility (mole fraction) (in water, 283.15 K): 0.000332
- solubility (mole fraction) (in water, 288.15 K): 0.0004
- solubility (mole fraction) (in water, 293.15 K): 0.000496
- solubility (mole fraction) (in water, 298.15 K): 0.000578
- solubility (mole fraction) (in water, 303.15 K): 0.000786
